Measurements: US20210267989A1, “Novel Compounds for the Treatment, Alleviation or Prevention of Disorders Associated with Tau Aggregates” (AC Immune SA, priority 2018, published 2021)

What was measured:
[1] = target: T1, Tau K18 fragment aggregates (amino acids 244 to 372 of human Tau441) (Homo sapiens, UniProt P10636); test: Tau K18 disaggregation assay by ThT; type: biochemical; conditions: ThT fluorescence; 2 μM K18 aggregates, 30 minutes at RT
T1 construct: encompassing amino acids 244 to 372 of the longest isoform (2N4R) of human Tau441; host or cells: bacteria
T1 sequence (P10636 561-689): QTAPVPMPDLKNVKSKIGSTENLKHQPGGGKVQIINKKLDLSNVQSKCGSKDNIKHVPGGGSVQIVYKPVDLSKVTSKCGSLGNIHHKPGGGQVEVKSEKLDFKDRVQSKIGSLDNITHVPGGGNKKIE
Description: Tau K18 Disaggregation Assay by ThT
The Tau K18 fragment, encompassing amino acids 244 to 372 of the longest isoform (2N4R) of human Tau441, was expressed in bacteria and purified or bought from SignalChem. For the K18 disaggregation assay by ThT, 35 μM of recombinant K18 in PBS were aggregated for 24 hours at 37° C. in presence of 50 μM of heparin (Sigma-Aldrich) and 10 mM of DTT (Sigma-Aldrich) under shaking at 750 RPM. Compounds were dissolved in anhydrous dimethyl sulfoxide (DMSO, Sigma-Aldrich) to reach a concentration of 10 mM. K18 aggregates and serial dilutions of compounds were mixed together in PBS (volume 50 μL) to a final concentration of 2 μM of K18 aggregates and from 160 to 0.04 μM of compounds. The mixture was incubated for 30 minutes at room temperature (RT), then 40 μL of this mixture were transferred into a black 384-well plate assay (Perkin-Elmer) and mixed with 10 μL of 100 μM ThT in 250 mM glycine (both from Sigma-Aldrich) in PBS. Fluorescence (relative fluorescence units; RFU) was measured in monoplicate or duplicate on a Tecan reader (excitation: 440 nm; emission: 485 nm). Percentage of K18 disaggregation was then calculated and half maximal effective concentration (E050) was determined using GraphPad Prism version 5 (GraphPad Software) assuming a one-binding site fitting model.

[2] = target: T2, monomeric flTau (human Tau 2N4R; 441 amino acids) (Homo sapiens, UniProt P10636); test: Full-length Tau inhibition of aggregation assay by ThT (seeded with AD brain PHF); type: biochemical; conditions: 4 μM monomeric flTau + AD brain PHF 1:200, 72 h at 37° C.
T2 construct: purchased Biotechne (USA); host or cells: E coli
T2 sequence (P10636 1-441 isoform P10636-8): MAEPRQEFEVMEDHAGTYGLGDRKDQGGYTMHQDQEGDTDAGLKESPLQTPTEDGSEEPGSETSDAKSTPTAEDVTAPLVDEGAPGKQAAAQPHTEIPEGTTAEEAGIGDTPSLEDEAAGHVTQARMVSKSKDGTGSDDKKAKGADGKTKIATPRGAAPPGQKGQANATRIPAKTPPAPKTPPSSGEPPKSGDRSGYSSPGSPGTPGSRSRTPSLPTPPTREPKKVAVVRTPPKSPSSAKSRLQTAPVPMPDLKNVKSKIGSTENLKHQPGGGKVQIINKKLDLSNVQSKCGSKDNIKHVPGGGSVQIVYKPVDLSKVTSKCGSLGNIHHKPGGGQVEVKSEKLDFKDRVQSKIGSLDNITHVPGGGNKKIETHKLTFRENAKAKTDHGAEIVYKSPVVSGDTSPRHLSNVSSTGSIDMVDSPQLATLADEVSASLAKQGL
Description: Full-Length Tau (fIT) Inhibiton of Aggregation Assay by ThT
The isoform of human Tau (2N4R; 441 amino acids) was purchased from Biotechne (USA). The protein was expressed in bacteria E coli, purified and concentrated in PBS to a final concentration of 50 μM.
To induce Tau aggregation, 4 μM of monomeric flTau was incubated for 72 hours at 37° C. under agitation cycles consisting of both orbital shaking and mixing function using the Hula Mixer (Life Technologies) with Tau paired-helical filaments (PHF) enriched from the post-mortem brain of one Alzheimer's disease (AD) patient obtained from an external source (Tissue Solutions) diluted 1:200. The enrichment procedure was modified from Jicha et al, 1997 (Journal of Neuroscience Research 48:128-132 (1997)) and Rostagno and Ghiso, 2009 (Current protocols in cell biology (2009), Chapter 3, Unit 3.33 3.33.1-33). […]
To test the capability of compounds of this invention to inhibit Tau aggregation, serial dilution of compounds in DMSO were added to the monomeric flTau/PHF mix prior incubation. […] Fluorescence was measured in monoplicate on a Tecan reader Spark using filter (excitation at 448 nm/BW 7 nm, emission at 485 nm/BW 20 nm). A dose response type of curve was obtained out to two independent experiments each with technical duplicates and the IC50 was calculated using GraphPad Prism 7.03.

[3] = target: T3, Aggregated human Tau in human neuroblastoma cell line overexpressing full-length human Tau P301L (Homo sapiens, UniProt P10636, P618L); test: Reduction of intracellular Tau aggregation (AlphaLISA, aggregated Tau normalized to total Tau); type: cell-based; conditions: compound at 5 μM, 24 h, relative to DMSO-treated cells
T3 construct: overexpressing the full-length form of human Tau carrying the P301L mutation; expressed in transfected cells; host or cells: human neuroblastoma cell line (G418 selection)
T3 sequence (P10636 1-441 isoform P10636-8 P301L): as the sequence (P10636 1-441 isoform P10636-8) above, with P301L counted along it
Description: Reduction of Intracellular Tau Aggregation
A human neuroblastoma cell line overexpressing the full-length form of human Tau carrying the P301L mutation was cultured in complete medium [DMEM-F12 4.5 g/L Glutamax (Invitrogen), 15% FBS (Biochrom), 1% Peni/Strep (Invitrogen) supplemented with 2.5 μg/ml of G418 (Sigma-Aldrich) selection antibiotic]. The day before the experiment 5×10^5 cells/well were plated in a 6 well plate in 3 mL of complete medium. The next day, cells were incubated with DMSO or a compound of the present invention at 5 μM for additional 24 h at 37° C. After incubation, cells were trypsinized, resupsended in 100 μl of homogenization buffer [25 mM Tris-HCl pH 7.4, 150 mM NaCl, 1 mM EDTA, 1 mM EGTA containing phosphatase inhibitors (30 mM NaF, 0.2 mM Na3VO4, 1 nM okadaic acid, 1 mM PMSF, 5 mM Na4P2O7) and protease inhibitor cocktail (Complete™, Roche)], and then physically lysed with three rapid cycles of freezing and thawing. Samples were then directly tested in the AlphaLISA assay.
Phosphorylated, aggregated, and total Tau were quantified by AlphaLisa using the following antibody pairs: • HT7-Acceptor beads+biotin (BT)-Tau13-Donor beads: Total Tau • HT7-Acceptor beads+biotin (BT)-HT7-Donor beads: Aggregated human Tau
The Tau13 (Abcam) was biotinylated using EZ-Link® NHS-PEO Solid Phase biotinylation kit (Thermo Scientific), while the HT7-biotin was from a commercial source (Thermo Scientific).
For each antibody pairs the concentration of acceptor beads and biotinylated antibodies was optimized. All samples were first tested in a dilution series in PBS in order to identify the linear range and optimal dilution for each sample and assay. For the final protocol, the following reagents were added in a 384-well white OptiPlate (PerkinElmer): • 5 μL of test diluted sample • 20 μL of the mixture biotin-mAb acceptor beads at the following final concentrations: • HT7-BT at 1.25 nM in combination with HT7-Acc beads at 10 μg/ml • Tau13-BT at 5 nM in combination with HT7-Acc beads at 2.5 μg/ml
After incubation of this mixture at room temperature for 1 h, 25 μL of Streptavidin Donor beads (Perkin Elmer) at 25 μg/mL were added in the dark. Plates were analyzed after 30 min incubation using the EnSpire Alpha instrument and EnSpire Workstation version 3.00. Data for aggregated Tau were normalized to total Tau and then expressed as percentage of the DMSO-treated cells.

Compound: c1ccc2c3c([nH]c2c1)CN(c1ccc(N2CCOCC2)nc1)CC3 [Example 44]
- EC50 [1]: < 10000 nM
- IC50 [2]: 390 nM
- % Reduction of intracellular Tau aggregation [3]: +++ (+++ % > 50)

Compound: Cn1c2c(c3ccccc31)CCN(c1ccc(N3CCOCC3)nc1)C2 [Example 46]
- EC50 [1]: < 10000 nM
- IC50 [2]: 1200 nM
- % Reduction of intracellular Tau aggregation [3]: ++ (++ % 50 < x < 25)
